Test [1] concerns the target T1, Human GnRH receptor (Homo sapiens, UniProt P30968).
T1 construct: expressed in transfected cells; host or cells: CHO (Chinese hamster ovary) cells, membrane fraction
T1 sequence (P30968 1-328): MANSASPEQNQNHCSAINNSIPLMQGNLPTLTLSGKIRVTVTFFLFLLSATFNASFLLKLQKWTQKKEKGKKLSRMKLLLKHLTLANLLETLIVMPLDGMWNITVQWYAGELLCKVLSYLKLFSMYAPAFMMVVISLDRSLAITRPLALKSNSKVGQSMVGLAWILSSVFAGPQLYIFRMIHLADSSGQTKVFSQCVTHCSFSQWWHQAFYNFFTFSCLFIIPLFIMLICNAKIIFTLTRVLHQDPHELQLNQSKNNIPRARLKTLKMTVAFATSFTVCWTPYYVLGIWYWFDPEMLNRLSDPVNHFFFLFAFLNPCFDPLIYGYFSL
The experiment in a line: ^125 I-leuprolerin binding inhibition, human GnRH receptor-expressed CHO cell membrane fraction. The conditions noted are these: 25° C. for 60 minutes, read-out: GnRH-receptor binding inhibitory activity (IC50, μM) Man. The protocol:
A tube was filled with 10 μl of an aqueous solution of leuprolerin (3×10^4 M) and lactoperoxidase (0.01 mg/ml) followed by addition of 10 μl of Na^125 I solution (37 MBq). After stirring, 10 μl of 0.001% H2 O2 was added and the reaction was conducted at room temperature for 20 minutes. The reaction was stopped by adding 700 μl of 0.05% TFA and the reaction mixture was subjected to reversed-phase HPLC under the conditions set forth below. ^125 I-leuprolerin was eluted with a retention time of 26-27 minutes. […] To the sediment was added 10 ml of a cell homogenate buffer (10 mM NaHCO3, 5 mM EDTA, pH 7.5) and the mixture was homogenized using a Polytron homogenizer. The homogenate was centrifuged at 400 xg for 15 minutes and the supernatant was transferred to an ultracentrifuge cuvette and centrifuged at 100,000 xg for 1 hour to prepare a membrane fraction pellet. This pellet was suspended in 2 ml of the assay buffer and further centrifuged at 100,000 xg for 1 hour. The membrane fraction recovered as a pellet was resuspended in 20 ml of the assay buffer, distributed into vials, preserved at -80° C., and reconstituted before use. The rat and human membrane fractions prepared under (B) and (D) were respectively diluted with the assay buffer to make 200 μg/ml each and 188 μl aliquots of each dilution were distributed into tubes. The bovine membrane fraction prepared under (C) was diluted with the assay buffer to make 750 μg/ml and 188 μl aliquots of the dilution were distributed into tubes. When the rat anterior pituitary membrane fraction was used, 2 μl of 0.1 mM compound/60% dimethyl sulfoxide (DMSO) and 10 μl of 38 nM ^125 I-leuprolerin were concurrently added. […] For determination of maximum binding, a reaction mixture was prepared by adding 2 μl of 60% DMSO and 10 μl of 38 nM ^125 I-leuprolerin. For determination of non-specific binding, a reaction mixture was prepared using 2 μl of 100 μM leuprolerin/60% DMSO and 10 μl of […] ^125 I-leuprolerin. When the rat and bovine anterior pituitary membrane fractions were used, each reaction was carried out at 4° C. for 90 minutes. On the other hand, when the human GnRH receptor-expressed CHO cell membrane fraction was used, the reaction was conducted at 25° C. for 60 minutes. After completion of the reaction, the reaction mixture was suction-filtered through a polyethyleneimine-treated Whatman glass filter (GF-F) [trademark;whatman]. After filtration, the radioactivity of the residual ^125 I-leuprolerin on the filter was measured using a γ-counter. The computation formula of (TB-SB)/(TB-NSB)×100 (SB=radioactivity bound in the presence of the test compound, TB=maximum amount of radioactivity bound, NSB=amount of radioactivity nonspecifically bound) was calculated to find the binding inhibition rate for the test compound. Moreover, the inhibition rate was determined by varying the concentration of each test compound and the concentration of the compound causing 50% inhibition of binding (IC50 value) was calculated by Hill plot.

For test [2], the target named is T2, Rat GnRH Receptor (Rattus norvegicus, UniProt P30969).
T2 construct: from tissue; host or cells: anterior pituitary of male Wistar rats (8 weeks old), membrane fraction
T2 sequence (P30969 1-327): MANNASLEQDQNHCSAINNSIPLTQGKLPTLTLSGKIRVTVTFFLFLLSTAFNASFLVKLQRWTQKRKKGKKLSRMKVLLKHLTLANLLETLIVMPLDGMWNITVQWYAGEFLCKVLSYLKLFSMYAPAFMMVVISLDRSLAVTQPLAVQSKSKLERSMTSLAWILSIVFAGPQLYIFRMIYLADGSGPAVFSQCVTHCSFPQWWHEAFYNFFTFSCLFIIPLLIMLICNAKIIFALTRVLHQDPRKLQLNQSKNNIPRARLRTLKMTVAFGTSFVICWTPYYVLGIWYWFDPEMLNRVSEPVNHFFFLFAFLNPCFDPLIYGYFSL
The experiment in a line: ^125 I-leuprolerin binding inhibition, rat anterior pituitary membrane fraction. More on the design: species or system rat (Wistar). As to conditions: 4° C. for 90 minutes, read-out: GnRH-receptor binding inhibitory activity (IC50, μM) Rat. On the procedure:
A tube was filled with 10 μl of an aqueous solution of leuprolerin (3×10^4 M) and lactoperoxidase (0.01 mg/ml) followed by addition of 10 μl of Na^125 I solution (37 MBq). After stirring, 10 μl of 0.001% H2 O2 was added and the reaction was conducted at room temperature for 20 minutes. The reaction was stopped by adding 700 μl of 0.05% TFA and the reaction mixture was subjected to reversed-phase HPLC under the conditions set forth below. ^125 I-leuprolerin was eluted with a retention time of 26-27 minutes. Forty rats (8 weeks old, male) of Wistar strain were decapitated under no anesthesia and the anterior pituitary isolated from each animal was washed with an ice-cooled homogenate buffer (25 mM Tris (tris(hydroxylmethyl)aminomethane)-HCl, 0.3M sucrose, 1 mM EGTA (ethylene-bis(oxyethylenenitrilo)tetraacetic acid), 0.25 mM PMSF (phenylmethylsulfonyl fluoride), 10 U/ml aprotinin, 1 μg/ml pepstatin, 20 μg/ml leupeptin, 100 μg/ml phosphoramidon, 0.03% sodium azide; pH 7.5). The anterior pituitary was suspended in 2 ml of the same homogenate buffer as above and homogenized using a Polytron homogenizer. The homogenate thus prepared was centrifuged at 700 xg for 15 minutes and the supernatant was transferred to an ultracentrifuge cuvette and further centrifuged at 100,000 xg for 1 hour to provide a membrane fraction pellet. This pellet was suspended in 2 ml of an assay buffer (25 mM Tris-HCl, 1 mM ethylenediaminetetraacetic acid (EDTA), 0.1% bovine serum albumin (BSA), 0.25 mM PMSF, 1 μg/ml pepstatin, 20 μg/ml leupeptin, 100 μg/ml phosphoramidon, 0.03% sodium azide; pH 7.5) and centrifuged at 100,000 xg for 1 hour. The membrane fraction recovered as a pellet was resuspended in 10 ml of the same assay buffer as above, distributed into vials, preserved at -80° C., and reconstituted before use. The rat and human membrane fractions prepared under (B) and (D) were respectively diluted with the assay buffer to make 200 μg/ml each and 188 μl aliquots of each dilution were distributed into tubes. The bovine membrane fraction prepared under (C) was diluted with the assay buffer to make 750 μg/ml and 188 μl aliquots of the dilution were distributed into tubes. When the rat anterior pituitary membrane fraction was used, 2 μl of 0.1 mM compound/60% dimethyl sulfoxide (DMSO) and 10 μl of 38 nM ^125 I-leuprolerin were concurrently added. […] For determination of maximum binding, a reaction mixture was prepared by adding 2 μl of 60% DMSO and 10 μl of 38 nM ^125 I-leuprolerin. For determination of non-specific binding, a reaction mixture was prepared using 2 μl of 100 μM leuprolerin/60% DMSO and 10 μl of […] ^125 I-leuprolerin. When the rat and bovine anterior pituitary membrane fractions were used, each reaction was carried out at 4° C. for 90 minutes. On the other hand, when the human GnRH receptor-expressed CHO cell membrane fraction was used, the reaction was conducted at 25° C. for 60 minutes. After completion of the reaction, the reaction mixture was suction-filtered through a polyethyleneimine-treated Whatman glass filter (GF-F) [trademark;whatman]. After filtration, the radioactivity of the residual ^125 I-leuprolerin on the filter was measured using a γ-counter. The computation formula of (TB-SB)/(TB-NSB)×100 (SB=radioactivity bound in the presence of the test compound, TB=maximum amount of radioactivity bound, NSB=amount of radioactivity nonspecifically bound) was calculated to find the binding inhibition rate for the test compound. Moreover, the inhibition rate was determined by varying the concentration of each test compound and the concentration of the compound causing 50% inhibition of binding (IC50 value) was calculated by Hill plot.

Counter-ions that a name gives are not always drawn.

A word on the IC50: it is the midpoint of a concentration-inhibition curve. For `COc1cc2c(cc1OC)CC1(CCCCN1CCCC(CCCNC(=O)Cc1ccc(Cl)cc1)(c1ccccc1)c1ccccc1)CC2` (stereo not drawn) [II-51, 3,4-Dihydro-6,7-dimethoxy-1'-{4,4-diphenyl-7-[(4-chlorophenylacetyl)amino]heptyl}spiro[naphthalene-2(1H),2'-piperidine] hydrochloride], the IC50 turned out to be 0.08 µM in test [1] and 0.002 µM in test [2].
For `COc1cc2c(cc1OC)CC1(CCCCN1CCCC(CCCNC(=O)Cc1ccc(F)cc1)(c1ccccc1)c1ccccc1)CC2` (stereo not drawn) [II-50, 3,4-Dihydro-6,7-dimethoxy-1'-{4,4-diphenyl-7-[(4-fluorophenylacetyl)amino]heptyl}spiro[naphthalene-2(1H),2'-piperidine] hydrochloride], the 50% inhibitory concentration (IC50) amounted to 0.08 µM in test [1] and 0.0007 µM in test [2].
Regarding `COc1ccc(CC(=O)NCCCC(CCCN2CCCCC23CCc2cc(OC)c(OC)cc2C3)(c2ccccc2)c2ccccc2)cc1` (stereo not drawn) [II-58, 3,4-Dihydro-6,7-dimethoxy-1'-{4,4-diphenyl-7-[(4-methoxyphenylacetyl)amino]heptyl}spiro[naphthalene-2(1H),2'-piperidine] hydrochloride], the IC50 was determined as 0.11 µM in test [1] and 0.0016 µM in test [2].
Turning to `COc1cc2c(cc1OC)CC1(CCCCN1CCCC(CCCNC(=O)CCc1ccccc1)(c1ccccc1)c1ccccc1)CC2` (stereo not drawn) [II-64, 3,4-Dihydro-6,7-dimethoxy-1'-{4,4-diphenyl-7-[(3-phenylpropionyl)amino]heptyl}spiro[naphthalene-2(1H),2'-piperidine] hydrochloride], the results for the IC50 in test [1] and in test [2] were 0.2 µM and 0.009 µM, respectively.
Consider `COc1cc2c(cc1OC)CC1(CCCCN1CCCC(CCCNC(=O)Cc1ccccc1)(c1ccccc1)c1ccccc1)CC2` (stereo not drawn) [II-48, 3,4-Dihydro-6,7-dimethoxy-1'-[4,4-diphenyl-7-(phenylacetylamino)heptyl]spiro[naphthalene-2(1H),2'-piperidine] hydrochloride], for which the half-inhibitory concentration (IC50) in test [1] was 0.2 µM; in test [2], 0.002 µM.
For `COc1cc2c(cc1OC)CC1(CCCCN1CCCC(CCCNC(=O)Cc1cccc3ccccc13)(c1ccccc1)c1ccccc1)CC2` (stereo not drawn) [II-66, 3,4-Dihydro-6,7-dimethoxy-1'-{4,4-diphenyl-7-[(1-naphthylacetyl)amino]heptyl}spiro[naphthalene-2(1H),2'-piperidine] hydrochloride], the IC50 in test [1] stood at 0.3 µM; in test [2] it was 0.003 µM.
